Key:
Assay type in all cases: in vivo
[1] = tested on: Erysiphe graminis tritici (powdery mildew); assay: Greenhouse Test 1, foliar spray fungicide screen (POWD MDEW), host wheat; settings: disease control rating, 400 ppm (+++ at 100 ppm)
[2] = tested on: Pyricularia oryzae (rice blast); settings: disease control rating, foliar spray, host rice; 400 ppm (+++ at 100 ppm)
[3] = tested on: Puccinia recondita tritici (leaf rust); assay: Greenhouse Test 1, foliar spray fungicide screen (LEAF RUST), host wheat; settings: disease control rating, 400 ppm (+++ at 100 ppm)
[4] = tested on: Botrytis cinerea (gray mold); assay: Greenhouse Test 1, foliar spray fungicide screen (GRAY MOLD), host grape berries; settings: disease control rating, 400 ppm (+++ at 100 ppm)
[5] = tested on: Pseudoperonospora cubensis (downy mildew); assay: Greenhouse Test 1, foliar spray fungicide screen (DOWN MDEW), host squash; settings: disease control rating, 400 ppm (+++ at 100 ppm)
[6] = tested on: Cercospora beticola (leaf spot); assay: Greenhouse Test 1, foliar spray fungicide screen (LEAF SPOT), host sugar beet; settings: disease control rating, 400 ppm (+++ at 100 ppm)
[7] = tested on: Venturia inaequalis (apple scab); assay: Greenhouse Test 1, foliar spray fungicide screen (APPL SCAB), host apple seedling; settings: disease control rating, 400 ppm (+++ at 100 ppm)
[8] = tested on: Septoria tritici (leaf blotch); assay: Greenhouse Test 1, foliar spray fungicide screen (LEAF BLOT), host wheat; settings: disease control rating, 400 ppm (+++ at 100 ppm)
[9] = tested on: Southern corn rootworm (Diabrotica undecimpuctata howardi Barber); assay: Mite/insect screen, soil treatment (CRW); settings: Diabrotica, soil, read-out: CRW RESULTS %
In short: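 Five 2–3 instar larvae were placed on dry sandy soil with a presoaked corn seed after the soil had received 1 mL of compound solution and dried 6–12 h; cups were kept capped at 23°C. Mortality (%) and phytotoxicity were read after standard exposure. Formulation: acetone/alcohol with emulsifiers, water-diluted.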

[10] = tested on: southern armyworm (Spodopetra eridania Cramer); assay: Mite/insect screen, sprayed squash leaves (SAW); settings: Spodoptera eridania, read-out: SAW RESULTS %
In short: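 Steps: formulate compound in acetone/alcohol 50:50 carrying emulsifiers; dilute with water; spray leaves until runoff on upper and lower surfaces; air-dry one hour; for armyworm, excise two […] leaves into a dish of larvae; after exposure, score mortality and plant injury.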

[11] = tested on: Twospotted spider mites (Tetranychus urticae Koch); assay: Mite/insect screen, sprayed squash cotyledons (SM); settings: Tetranychus urticae, read-out: SM RESULTS %
In short: (§1)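 Compounds were dissolved in 50:50 acetone/alcohol containing sulfonate/nonionic emulsifier blends (23 g and 13 g per liter) and diluted with water to test concentrations. Leaves were sprayed on both surfaces to runoff and dried for one hour. Percent mortality and phytotoxicity were scored after standard exposure periods.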

[12] = tested on: melon aphids (Aphis gossypii Glover); assay: Mite/insect screen, sprayed squash cotyledons (MA); settings: Aphis gossypii, read-out: MA RESULTS %
In short: as §1

Erysiphe graminis hordei = assay: Fungicide field tests; settings: crop: barley
From the text: (§2) Selected compounds were field tested on various crops against a variety of pathogens. […]

[13] = tested on: Erysiphe graminis tritici; assay: Fungicide field tests; settings: crop: wheat
From the text: as §2

Erysiphe sp. = assay: Fungicide field tests; settings: crop: sugar beet
From the text: as §2

Plasmopara viticola = assay: Fungicide field tests; settings: crop: grape
From the text: as §2

[14] = tested on: Pseudocercosporella herpotrichoides; assay: Fungicide field tests; settings: crop: wheat
From the text: as §2

Pyrenophora teres = assay: Fungicide field tests; settings: crop: barley
From the text: as §2

Rhynchosporium secalis = assay: Fungicide field tests; settings: crop: barley
From the text: as §2

Sphaerotheca fuliginea = assay: Fungicide field tests; settings: crop: cucumber
From the text: as §2

Dawson-hop aphid = assay: Mite and insect field trials; settings: plant: hops
Experimental: (§3) 4-[2-[4-(t-butyl)phenyl]ethoxy]quinazoline and 4-[2-(1,1'-biphenyl)-4 biphenyl)-4-ylethoxy]quinazoline were evaluated against a variety of mite and insect species in field trials.

European red mite = assay: Mite and insect field trials; settings: plant: apples
Experimental: as §3

apple aphid = assay: Mite and insect field trials; settings: plant: apples
Experimental: as §3

apple rust mite = assay: Mite and insect field trials; settings: plant: apples
Experimental: as §3

bean aphid = assay: Mite and insect field trials; settings: plant: bean, faba broad
Experimental: as §3

black citrus aphid = assay: Mite and insect field trials; settings: plant: lemon
Experimental: as §3

cereal aphid = assay: Mite and insect field trials; settings: plant: barley
Experimental: as §3

citrus rust mite = assay: Mite and insect field trials; settings: tested on grapefruit
Experimental: as §3

cotton aphid = assay: Mite and insect field trials; settings: plant: cotton
Experimental: as §3

grape leafhopper = assay: Mite and insect field trials; settings: plant: grape (European)
Experimental: as §3

grape thrips = assay: Mite and insect field trials; settings: plant: grape (European)
Experimental: as §3

green cloverworm = assay: Mite and insect field trials; settings: plant: alfalfa (Lucerne)
Experimental: as §3

green peach aphid = assay: Mite and insect field trials
Experimental: as §3

greenhouse thrips = assay: Mite and insect field trials; settings: plant: azaleas
Experimental: as §3

pea aphid = assay: Mite and insect field trials
Experimental: as §3

potato aphid = assay: Mite and insect field trials; settings: plant: turnip
Experimental: as §3

potato leafhopper = assay: Mite and insect field trials; settings: plant: alfalfa (Lucerne)
Experimental: as §3

rosy apple aphid = assay: Mite and insect field trials; settings: plant: apples
Experimental: as §3

tarnished plant bug = assay: Mite and insect field trials; settings: plant: alfalfa (Lucerne)
Experimental: as §3

thrips = assay: Mite and insect field trials; settings: plant: privet
Experimental: as §3

twospotted spider mite = assay: Mite and insect field trials
Experimental: as §3

wheat aphid = assay: Mite and insect field trials; settings: plant: wheat
Experimental: as §3

white apple leafhopper = assay: Mite and insect field trials; settings: plant: apples
Experimental: as §3

yellow hickory aphid = assay: Mite and insect field trials; settings: plant: pecan nut
Experimental: as §3

With CC(C)(C)c1ccc(CCOc2ncnc3ccccc23)cc1 [Example 2, 4-[2-[4-(t-butyl)phenyl]ethoxy]quinazoline] the “POWD MDEW” value [1] was “++ (++ = 90-100% control at 400 ppm)”, the “RICE BLAST” value [2] was “+++ (+++ = 90-100% control at 100 ppm)” and the “LEAF RUST” value [3] was “+++ (+++ = 90-100% control at 100 ppm)”. For the same compound, the “GRAY MOLD” value [4] was “- (- = 0-19% control at 400 ppm)”, the “DOWN MDEW” value [5] was “+++ (+++ = 90-100% control at 100 ppm)” and the “LEAF SPOT” value [6] was “++ (++ = 90-100% control at 400 ppm)”. For the same compound, the “APPL SCAB” value [7] was “+ (+ = 20-89% control at 400 ppm)”, the “LEAF BLOT” value [8] was “+ (+ = 20-89% control at 400 ppm)” and the mortality at 12 ppm [9] was 0%. The mortality at 24 ppm [9] was 0%, the mortality at 200 ppm [10] was 0% and the mortality at 400 ppm [10] was 20%. For the same compound, the mortality at 200 ppm [11] was 100%, the mortality at 400 ppm [11] was 90% and the mortality at 200 ppm [12] was 90%. The mortality at 400 ppm [12] was 80%, the “pathogen against which compound demonstrated activity in field tests” value (“pathogen” below) (Erysiphe graminis hordei) was “Erysiphe graminis hordei” and the “pathogen” value [13] was “Erysiphe graminis tritici”. The “pathogen” value (Erysiphe sp.) was “Erysiphe sp”, the “pathogen” value (Plasmopara viticola) was “Plasmopara viticola” and the “pathogen” value [14] was “Pseudocercosporella herpotrichoides”. The “pathogen” value (Pyrenophora teres) was “Pyrenophora teres”, the “pathogen” value (Rhynchosporium secalis) was “Rhynchosporium secalis” and the “pathogen” value (Sphaerotheca fuliginea) was “Sphaerotheca fuliginea”. The “mite or insect species against which they showed activity in field trials” value (shortened to “mite or insect species”) (Dawson-hop aphid) was “Dawson-hop aphid”, the “mite or insect species” value (European red mite) was “European red mite” and the “mite or insect species” value (apple aphid) was “apple aphid”. The “mite or insect species” value (apple rust mite) was “apple rust mite”, the “mite or insect species” value (bean aphid) was “bean aphid” and the “mite or insect species” value (black citrus aphid) was “black citrus aphid”. For the same compound, the “mite or insect species” value (cereal aphid) was “cereal aphid”, the “activity against citrus rust mite in field trials” value (citrus rust mite) was “showing activity” and the “mite or insect species” value (cotton aphid) was “cotton aphid”. The “mite or insect species” value (grape leafhopper) was “grape leafhopper”, the “mite or insect species” value (grape thrips) was “grape thrips” and the “mite or insect species” value (green cloverworm) was “green cloverworm”. For the same compound, the “mite or insect species” value (green peach aphid; plant: apples) was “green peach aphid”, the “mite or insect species” value (green peach aphid; plant: sugar beet) was “green peach aphid” and the “mite or insect species” value (greenhouse thrips) was “greenhouse thrips”. For the same compound, the “mite or insect species” value (pea aphid; plant: alfalfa (Lucerne)) was “pea aphid”, the “mite or insect species” value (pea aphid; plant: pea, garden (English)) was “pea aphid” and the “mite or insect species” value (potato aphid) was “potato aphid”. For the same compound, the “mite or insect species” value (potato leafhopper) was “potato leafhopper”, the “mite or insect species” value (rosy apple aphid) was “rosy apple aphid” and the “mite or insect species” value (tarnished plant bug) was “tarnished plant bug”. The “mite or insect species” value (thrips) was “thrips”, the “mite or insect species” value (twospotted spider mite; plant: azaleas) was “twospotted spider mite” and the “mite or insect species” value (twospotted spider mite; plant: broccoli) was “twospotted spider mite”. The “mite or insect species” value (twospotted spider mite; plant: plum (Japanese)) was “twospotted spider mite”, the “mite or insect species” value (wheat aphid) was “wheat aphid” and the “mite or insect species” value (white apple leafhopper) was “white apple leafhopper”. The “mite or insect species” value (yellow hickory aphid) was “yellow hickory aphid”.

Source: EP0326329B1, “Quinazoline derivatives useful as insecticides” (Dow AgroSciences LLC, priority 1988, dated 1989)
